US9060537B2, “Method for enhancing rebaudioside D solubility in water” (PEPSICO, INC., priority 2012, dated 2015)

Key:
[1] = Modified Reb D solubility in water; assay type: physicochemical
[2] = co-crystallization of quercetin with caffeine, mass ratio 2:1; cited from earlier work
[3] = co-crystallization of quercetin with caffeine, mass ratio 2:1; cited from earlier work; remark: listed apart in the source

Structure (SMILES)	Solubility (23° C.) (ppm) ([1]; in water, 23° C.)	solubility of the Reb D after spray drying the clear Reb D solution to a fine powder ([1]; spray dried without enhancer or stabilizer) [ppm]	solubility in water ([1]; water at 23° C. / room temperature, untreated Reb D or powders as worded) [ppm]	maximum solubility in heated water ([1]; water heated above 70° C., typically 80 to 100° C.) [wt %]	solubility increase [2] [fold]	bioavailability increase [3] [fold]
C=C1C[C@@]23CC[C@H]4[C@@](C)(CCC[C@@]4(C)C(=O)O[C@@H]4O[C@H](CO)[C@@H](O)[C@H](O)[C@H]4O[C@@H]4O[C@H](CO)[C@@H](O)[C@H](O)[C@H]4O)[C@@H]2CC[C@]1(O[C@@H]1O[C@H](CO)[C@@H](O)[C@H](O[C@@H]2O[C@H](CO)[C@@H](O)[C@H](O)[C@H]2O)[C@H]1O[C@@H]1O[C@H](CO)[C@@H](O)[C@H](O)[C@H]1O)C3 [Control, Rebaudioside D]	350	1500	300	2.5	–	–
O=c1c(O)c(-c2ccc(O)c(O)c2)oc2cc(O)cc(O)c12 [quercetin]	–	–	–	–	14	10
